“Also recorded” adds a separate entry of the source.
Key:
rabbit erythrocytes = assay: Inhibitory effect on rabbit erythrocyte crenation induced by A23187; format: cell-based; conditions: for Crenation: x ± SE; for inhibition of A23187-induced erythrocyte crenation: result in words
Description: Fresh blood was collected from Japanese white rabbits weighing 2-3 kg. Blood samples were anticoagulated with citric acid (1 ml 3.8% Citric acid solution+10 ml blood). These samples were centrifuged at room temperature for 15 min at 1100 rpm. After centrifugation of the defibrinated blood, the upper cell layers were discarded. The erythrocytes (pellet) were washed 4 times in a medium containing; 56.6 mM Tris-HCl, pH 7.6, 100 mM NaCl, 4.6 mM KCl,0.64 mM MgCl2. The erythrocytes were preincubated with saline solution or Ap4 A at 37° C for 10min and then A23187 1×10^-6 M and CaCl2 5×10^-7 M were added to the Mixture. After incubation at 37° C. for 20 min, the reaction mixture was centrifugated at 1000 rpm for 10 min. The precipitation was fixed by addition of 0.1M cacodylate buffer containing 0.22M sucrose. The number of transforming erythrocytes was counted using a microscope.

[1] = tested on: human platelet-aggregation; conditions: words; cited from earlier work
dogs = assay: Gradual hypotension during anesthesia in dogs (hemodynamics, blood gas); format: in vivo, mongrel dogs; conditions: dog
Description: Dogs were anesthetized with enflurane. […] The mean blood pressure (B.P.), heart rate (H.R.), cardiac output (C.O.), arterial oxygen tension (PaO2), mixed venos oxygen tension (PvO2), arterial carbonate tension (PaCO2), mixed venous carbonate tension (PvCO2), arterial pH (pH-a), mixed venous pH (pH-v), and base excess thereof were measured.
Mongrel dogs weighing 9 to 17 kg were anesthetized with intravenous thiopental 20 mg/kg by bolus injection, followed by 1% enflurane in 40% O2 /N2 after endotracheal intubation. […] Bilateral femoral arteries were catheterized, one for the determination of blood pressure and the other for blood sampling.
Access to the bilateral femoral veins was obtained for the administration of Ap4A, PG E1 or nitroglycerin and for the insertion of a ballon-tipped thermodilution catheter. The electrocardiogram was continuously monitored. The control values were obtained before the administration of each of the above-mentioned three agents. Each agent was administered using a syringe pump at titrated doses to produce gradual 20%, 40%, 50%, 60%, and 80% decreases in the mean arterial pressure (MAP) from the control value.
After the target blood pressure and stable hemodynamic conditions were reached, the following parameters were measured: heart rate (HR), mean pulmonary artery pressure (PAM), pulmonary capillary wedge pressure (PCWP), and central venous pressure (CVP). Cardiac output (CO) was determined by the thermodilution method. Gas analyses of arterial and mixed venous bloods were performed using a blood gas analyzer.

[2] = words; cited from earlier work
[3] = enflurane, at -20% blood pressure
[4] = enflurane, at -40% blood pressure
[5] = enflurane, at -50% blood pressure
[6] = enflurane, at -60% blood pressure
[7] = enflurane, at -80% blood pressure

## Nc1ncnc2c1ncn2[C@@H]1O[C@H](COP(=O)(O)OP(=O)(O)OP(=O)(O)OP(=O)(O)OC[C@H]2O[C@@H](n3cnc4c(N)ncnc43)[C@H](O)[C@@H]2O)[C@@H](O)[C@H]1O [Ap4A, diadenosine 5',5'"-p^1,p^4 -tetraphosphate]
Rabbit erythrocytes; 10^-3 M, P < 0.01 vs control
  Crenation: 19.2 ± 9.1%
Rabbit erythrocytes; 10^-4 M, P < 0.05 vs control
  Crenation: 37.0 ± 6.4%
Rabbit erythrocytes; 10^-5 M
  Crenation: 49.1 ± 3.9%
Rabbit erythrocytes; Oryctolagus cuniculus, Erythrocyte, 10^-3 M
  inhibition at 1000 µM: 66.1%
Rabbit erythrocytes; Oryctolagus cuniculus, Erythrocyte, 10^-4 M
  inhibition at 100 µM: 34.6%
Rabbit erythrocytes; Oryctolagus cuniculus, Erythrocyte, 10^-5 M
  inhibition at 10 µM: 13.3%
Rabbit erythrocytes; Oryctolagus cuniculus, Erythrocyte, A23187-induced crenation
  IC50: 300 µM
Rabbit erythrocytes
  inhibition of A23187-induced erythrocyte crenation: significant inhibitory effect
Rabbit erythrocytes; listed as Ap4 A
  inhibition of A23187-induced erythrocyte crenation: A23187-induced rabbit erythrocyte crenation was inhibited
[1]
  ADP-induced human platelet-aggregation inhibitory effect: ADP-induced human platelet-aggregation inhibitory effect
dogs; enflurane
  fall in blood pressure attainable: ~60%
dogs; [3]
  Arterial Carbonate Tension PaCO2: 36.0 ± 1.0 mmHg
  Arterial Oxygen Tension PaO2: 252.8 ± 7.2 mmHg
  Arterial pH (pH-a): 7.337 ± 0.013
  Body Temperature BT: 37.2 ± 0.6 °C
  Cardiac Output C.O.: 2.42 ± 0.25 L/min
  Central Venous Pressure CVP: 3.77 ± 0.25 mmHg
  Heart Rate H.R.: 160.1 ± 7.5 beats/min
  Hematocrit Value Hct: 40.6 ± 2.1%
  Mean Blood Pressure B.P. (mean): 104.3 ± 3.3
  Mean Blood Pressure B.P. (Δ%): -19.8 ± 0.4%
  Mixed Venous Carbonate Tension PvCO2: 39.3 ± 1.2 mmHg
  Mixed Venous Oxygen Tension PvO2: 61.6 ± 2.4 mmHg
  Mixed Venous pH (pH-v): 7.308 ± 0.008
  Pulmonary Artery Pressure PAM: 18.4 ± 1.5 mmHg
  Pulmonary Capillary Wedge Pressure PCWP: 8.3 ± 1.3 mmHg
dogs; enflurane, at -20% blood pressure (Table 1)
  Base Excess BE: -5.39 ± 0.77 mBq-1
dogs; [4]
  Arterial Carbonate Tension PaCO2: 35.3 ± 1.0 mmHg
  Arterial Oxygen Tension PaO2: 253.8 ± 7.6 mmHg
  Arterial pH (pH-a): 7.341 ± 0.018
  Body Temperature BT: 37.3 ± 0.6 °C
  Cardiac Output C.O.: 2.22 ± 0.15 L/min
  Central Venous Pressure CVP: 3.89 ± 0.29 mmHg
  Heart Rate H.R.: 154.9 ± 6.9 beats/min
  Hematocrit Value Hct: 40.6 ± 1.7%
  Mean Blood Pressure B.P. (mean): 78.2 ± 2.3
  Mean Blood Pressure B.P. (Δ%): -39.8 ± 0.4%
  Mixed Venous Carbonate Tension PvCO2: 36.6 ± 1.3 mmHg
  Mixed Venous Oxygen Tension PvO2: 63.3 ± 1.7 mmHg
  Mixed Venous pH (pH-v): 7.311 ± 0.009
  Pulmonary Artery Pressure PAM: 17.8 ± 1.6 mmHg
  Pulmonary Capillary Wedge Pressure PCWP: 8.0 ± 1.2 mmHg
dogs; enflurane, at -40% blood pressure (Table 1)
  Base Excess BE: -5.52 ± 0.89 mBq-1
dogs; [5]
  Arterial Carbonate Tension PaCO2: 35.0 ± 1.1 mmHg
  Arterial Oxygen Tension PaO2: 252.5 ± 7.5 mmHg
  Arterial pH (pH-a): 7.338 ± 0.011
  Body Temperature BT: 37.2 ± 0.6 °C
  Cardiac Output C.O.: 2.02 ± 0.16 L/min
  Central Venous Pressure CVP: 3.64 ± 0.35 mmHg
  Heart Rate H.R.: 144.0 ± 7.3 beats/min
  Hematocrit Value Hct: 40.7 ± 1.7%
  Mean Blood Pressure B.P. (mean): 65.4 ± 2.0
  Mean Blood Pressure B.P. (Δ%): -49.6 ± 0.4%
  Mixed Venous Carbonate Tension PvCO2: 36.7 ± 1.4 mmHg
  Mixed Venous Oxygen Tension PvO2: 60.5 ± 2.1 mmHg
  Mixed Venous pH (pH-v): 7.308 ± 0.011
  Pulmonary Artery Pressure PAM: 16.3 ± 1.4 mmHg
  Pulmonary Capillary Wedge Pressure PCWP: 7.6 ± 1.2 mmHg
dogs; enflurane, at -50% blood pressure (Table 1)
  Base Excess BE: -5.77 ± 0.66 mBq-1
dogs; [6]
  Arterial Carbonate Tension PaCO2: 34.6 ± 1.3 mmHg
  Arterial Oxygen Tension PaO2: 253.8 ± 7.7 mmHg
  Arterial pH (pH-a): 7.315 ± 0.010
  Body Temperature BT: 37.2 ± 0.6 °C
  Cardiac Output C.O.: 1.55 ± 0.20 L/min
  Central Venous Pressure CVP: 3.63 ± 0.44 mmHg
  Dose: 242.4 ± 32.8 µg/kg/min
  Heart Rate H.R.: 131.6 ± 7.5 beats/min
  Hematocrit Value Hct: 41.9 ± 2.2%
  Mean Blood Pressure B.P. (mean): 51.7 ± 1.7
  Mean Blood Pressure B.P. (Δ%): -60.3 ± 0.2%
  Mixed Venous Carbonate Tension PvCO2: 38.1 ± 1.8 mmHg
  Mixed Venous Oxygen Tension PvO2: 54.9 ± 1.8 mmHg
  Mixed Venous pH (pH-v): 7.292 ± 0.011
  Pulmonary Artery Pressure PAM: 14.3 ± 1.1 mmHg
  Pulmonary Capillary Wedge Pressure PCWP: 6.7 ± 10.9 mmHg
dogs; enflurane, at -60% blood pressure (Table 1)
  Base Excess BE: -7.30 ± 0.64 mBq-1
dogs; [7]
  Arterial Carbonate Tension PaCO2: 37.5 ± 1.1 mmHg
  Arterial Oxygen Tension PaO2: 245.6 ± 9.2 mmHg
  Arterial pH (pH-a): 7.260 ± 0.010
  Body Temperature BT: 37.4 ± 0.6 °C
  Cardiac Output C.O.: 1.16 ± 0.11 L/min
  Central Venous Pressure CVP: 3.51 ± 0.60 mmHg
  Dose: 3895.2 ± 675.7 µg/kg/min
  Heart Rate H.R.: 98.6 ± 4.7 beats/min
  Hematocrit Value Hct: 42.8 ± 2.2%
  Mean Blood Pressure B.P. (mean): 28.8 ± 1.0
  Mean Blood Pressure B.P. (Δ%): -77.8 ± 0.8%
  Mixed Venous Carbonate Tension PvCO2: 44.4 ± 1.4 mmHg
  Mixed Venous Oxygen Tension PvO2: 53.3 ± 2.8 mmHg
  Mixed Venous pH (pH-v): 7.228 ± 0.014
  Pulmonary Artery Pressure PAM: 14.3 ± 1.2 mmHg
  Pulmonary Capillary Wedge Pressure PCWP: 7.4 ± 1.0 mmHg
dogs; enflurane, at -80% blood pressure (Table 1)
  Base Excess BE: -9.36 ± 0.79 mBq-1
dogs; result in words
  effect on arterial pH / venous pH: does not decrease arterial pH and venous pH up to a less than 60% fall in blood pressure; also recorded: does not substantially decrease arterial pH in practical use
  effect on base excess: does not make any significant changes in base excess
  effect on carbonate tension: tendency to decrease arterial carbonate tension (PaCO2), and mixed venous carbonate tension (PvCO2); also recorded: tendency to decrease arterial carbonate tension (PaCO2), mixed venous carbonate tension (PvCO2), or actually decreases PaCO2 and PvCO2
  effect on cardiac output: cardiac output is significantly increased at a 20% fall in blood pressure; also recorded: tendency to significantly increase the cardiac output when a 20% fall in blood pressure is attained, and the cardiac output is continuously increased until a 60% fall in blood pressure is attained
  effect on heart rate: when a 60% or more fall in blood pressure is attained, Ap4A is seem to have significant adverse effects on the heart rate; also recorded: significant effect on heart rate is that required for a 60% or more fall in blood pressure
  effect on oxygen tension: tendency to increase arterial oxygen tension (PaO2), and mixed venous oxygen tension (PvO2); also recorded: tendency to increase arterial oxygen tension (PaO2), and mixed venous oxygen tension (PvCO2), or actually increases PaO2 and PvO2
  hypotensive effect compared with PG E1 / nitroglycerin: the same hypotensive effect as that of PG E1; also recorded: comparable with that of PG E1 and is better than that of nitroglycerin
[2]
  arrhythmic effect: an arrhythmic effect
